Numbers after ± are expanded uncertainties.
Columns and labels:
[1] = Molar enthalpy of transition or fusion; settings: Crystal; DSC
[2] = Crystal; DTA

Compound: N[C@@H](Cc1ccccc1)C(=O)O [L-phenylalanine]
- Molar enthalpy of transition or fusion [1]: 18.5 ± 0.57 kJ/mol
- Triple point temperature [2]: 556.15 ± 0.5 K

— the NIST ThermoML archive (doi:10.1021/je201354k)
